The results in this text go back to paper PMC4841789, “Synthesis and pharmacological evaluation of mono-arylimidamides as antileishmanial agents” (Bioorganic & Medicinal Chemistry Letters, 2016).

Each structure is given as a SMILES string. Like-named read-outs stand apart in the source and are kept apart here. Bounds are passed on as bounds.

The test system of data set [1] is Intracellular L. donovani. As to the kind of experiment: Efficacy against intracellular L. donovani amastigotes. It is filed as cell-based. The settings on record: Leishmania donovani; means ± standard errors of at least three independent experiments. The text has this:
(§1) Methods employed for the evaluation of the efficacy of mono-AIA target compounds against intracellular L. amazonensis[14] and intracellular L. donovani[15] and for toxicity to murine J774 macrophages[16] have been described previously. […] For ease in illustrating the antileishmanial SAR of this series of compounds, the central phenyl ring, the linker, and the terminal phenyl ring are referred to as rings A, B, and C, respectively (Fig. 1).

Data set [2] concerns Intracellular L. amazonensis. Description: Efficacy against intracellular L. amazonensis amastigotes. The class given is cell-based. As to conditions: Leishmania amazonensis.
Text: as §1

A further data set relates to J774 macrophages. Description: Toxicity to murine J774 macrophages (host cell counterscreen). The class given is cell-based. As to conditions: for IC50: Mus musculus; for selectivity index for intracellular Leishmania compared to J774 murine macrophages: IC50 vs J774 macrophages/IC50 vs Leishmania. From the text: For ease in illustrating the antileishmanial SAR of this series of compounds, the central phenyl ring, the linker, and the terminal phenyl ring are referred to as rings A, B, and C, respectively (Fig. 1).

Another data set deals with L. donovani LV82. Description: Murine model of visceral leishmaniasis (liver parasitemia). It is filed as in vivo. The settings on record: L. donovani-infected mice; for suppression (inhibition) of liver parasitemia: i.p. 30 mg/kg/day for 5 days, vs untreated control. The protocol:
(§2) Compounds 1b, 1d, and 1k were dissolved in water and administered to healthy BALB/c mice for assessment of their in vivo toxicity. […] Animals were infected with L. donovani LV82 promastigotes and then treated with different compounds one week post infection for five consecutive days. These mice were euthanized two weeks post infection and liver smear slides were prepared for the microscopic determination of parasitemia.
Compounds were administered i.p. (A and B) or p.o. (C) once daily for 5 days to infected mice. Results are presented as the percentage inhibition of liver parasitemia. Bars and error bars show the mean and standard deviation, respectively (n = 4) ^*p < 0.01, compared to untreated control, ^#p < 0.05, compared to untreated control.

A further data set deals with healthy BALB/c mice. As to the kind of experiment: In vivo toxicity assessment in healthy BALB/c mice. As to conditions: i.p. 30 mg/kg/day for 5 days, dissolved in water. The protocol: as §2
A short description of data set [3]: Plasma and tissue concentrations after a single oral dose. It is filed as in vivo. As to conditions: mouse, mice; for concentration at 24 h: 24 h after single oral dose 100 μmol/kg (40 mg/kg); for concentration at 1 h: 1 h after single oral dose 100 μmol/kg (40 mg/kg). The protocol:
To confirm the exposure and accumulation of 1b in target organs after oral administration, plasma and tissue concentrations of this compound were determined at 1, 2 and 24 h after a single oral dose at 100 μmol/kg (or 40 mg/kg) in mice. Compound 1b accumulated in the target organs such as liver and spleen at higher concentrations (C1h = 12.6 and 4.7 μM, respectively) than in the plasma (C1h = 1.9 μM) (Fig. 3). At 24 h post dose, 1b concentrations decreased substantially to 0.14 μM in the plasma and 0.6–0.7 μM in the liver and spleen.
Figure 3 Concentration of 1b in liver ( [drawing 15] ), spleen ( [drawing 16] ), kidney ( [drawing 17] ), and plasma ( [drawing 18] ) after oral administration at a dose of 100 μmol/kg (or 40 mg/kg) to mice. Bars and error bars represent means and standard errors of triplicate determinations, respectively.

Data set [4] deals with intracellular L. amazonensis amastigotes. Description: Combination study of 1b and posaconazole against intracellular L. amazonensis amastigotes. The class given is cell-based. The settings on record: Leishmania amazonensis; combination experiment, absence of posaconazole; read-out: IC50 of 1b alone. The text has this: Our efforts to explore the mechanism of antileishmanial action of the bis-AIAs led to the observation that DB766 is synergistic with posaconazole against Leishmania donovani in vitro[17]; other investigators reported in vitro antileishmanial synergy between posaconazole and the squalene synthase inhibitor E5700.[18] A combination study with 1b and posaconazole was thus performed against intracellular L. amazonensis amastigotes. […] Instead, the method described by Peters et al.[23] was employed to determine whether posaconazole enhances the potency of 1b. […] Although both assays involved incubating infected murine peritoneal macrophages with posaconazole for 72 h, de Macedo-Silva exposed peritoneal macrophages to L. amazonensis for a shorter time compared to our studies prior to removing extracellular parasites (2 h vs overnight). […] Thus, a likely explanation for the discrepancy between IC50 values for posaconazole against intracellular L. amazonensis in the two studies is the differences in assay conditions employed.
Figure 4 In vitro interactions between 1b and posaconazole against intracellular L. amazonensis. Results are presented as the IC50 of 1b alone and in different combinations. Bars and error bars show the mean and standard deviation of three independent experiments.

Setting [5] is: means ± standard errors of at least three independent experiments, values marked b: means ± range of two experiments, read-out: IC50 Intracellular L. amazonensis.
[6] abbreviates: murine J774 macrophages, means ± standard errors of at least three independent experiments, read-out: IC50 J774 macrophages.

The term IC50 denotes the concentration that gives 50% inhibition. Take `CC(C)Oc1cc(NC(=N)c2ccccn2)ccc1-c1ccc(-c2cncnc2)o1` [Compound 1c]: the results for the IC50 (in data set [1]; in data set [2] (setting [5]); with J774 macrophages (setting [6])) were 2.1 ± 0.4 µM, 1.1 ± 0.3 µM and greater than 20 µM, respectively.
In the same order, the values of `CC(C)Oc1cc(NC(=N)c2ccccn2)ccc1-c1ccco1` [Compound 1a] are 2.4 ± 0.3 µM, 2.1 ± 0.2 µM and 22 µM.
As to `CC(C)Oc1cc(NC(=N)c2ncccn2)ccc1-c1ccc(-c2ccccc2)o1` [Compound 1p], the results for the IC50 (in data set [1]; in data set [2] (setting [5]); in the data set with J774 macrophages (setting [6])) were 0.44 ± 0.06 µM, 0.65 ± 0.16 µM and 12 µM, respectively.
The matching figures for `N=C(Nc1ccc(-c2ccc(-c3ccccc3)o2)c(C(F)(F)F)c1)c1ccccn1` [Compound 1n]: 6.1 ± 1.4 µM, greater than 10 µM and greater than 20 µM.
As to `CS(=O)(=O)O.N=C(Nc1ccc(-c2ccc(-c3ccccc3)o2)c(OC2CCCC2)c1)c1ccccn1` [Compound 1k], the IC50 came out at 0.17 ± 0.04 µM in data set [1], 0.14 ± 0.01 µM in data set [2] (setting [5]) and 13 µM in the data set on J774 macrophages (setting [6]). For the same compound, the “selectivity index for intracellular Leishmania compared to J774 murine macrophages” value (“selectivity index” below) with J774 macrophages is recorded as no less than 25. The “suppression (inhibition) of liver parasitemia” value (shortened to “suppression (inhibition)”) with L. donovani LV82 was determined as 20%. Further, the in vivo tolerability entry in the data set on healthy BALB/c mice is listed as “well tolerated”.
As for `CC(C)Oc1cc(NC(=N)c2ccccn2)ccc1-c1ccc(-c2ccccc2)s1` [Compound 1o], the IC50 in data set [1] stood at 2.2 ± 0.5 µM; in data set [2] (setting [5]) it was 2.3 ± 0.3 µM; with J774 macrophages (setting [6]) it was 6.9 ± 0.4 µM.
Take `CC[C@@H]([C@H](C)O)n1ncn(-c2ccc(N3CCN(c4ccc(OC[C@@H]5CO[C@@](Cn6cncn6)(c6ccc(F)cc6F)C5)cc4)CC3)cc2)c1=O` [posaconazole, reference compound]: the IC50 in data set [2] (Peritoneal macrophage, infected murine peritoneal macrophages, 72 h, low solubility at higher concentrations, read-out: IC50 against intracellular L. amazonensis) is greater than 10 µM.
In the case of `CC(C)Oc1cc(NC(=N)c2ccccn2)ccc1-c1ccc(-c2ccco2)o1.Cl` [Compound 1d], the IC50 amounted to 0.34 ± 0.05 µM in data set [1], 0.25 ± 0.01 µM in data set [2] (setting [5]) and 8.5 ± 0.8 µM in the data set with J774 macrophages (setting [6]). Besides, the “selectivity index” value with J774 macrophages is no less than 25. Moreover, in the data set with L. donovani LV82, the “suppression (inhibition)” value was 13%. Also, the in vivo tolerability result in the data set with healthy BALB/c mice was “well tolerated”.
`CC(C)Oc1cc(-c2ccc(-c3ccccc3)o2)ccc1NC(=N)c1ccccn1` [Compound 1j]: the values for the IC50 (in data set [1]; in data set [2] (setting [5]); with J774 macrophages (setting [6])) were 1.4 ± 0.3 µM, 1.6 ± 0.3 µM and 13 µM, respectively.
In the same order, the values of `COc1cc(NC(=N)c2ccccn2)ccc1-c1ccc(-c2ccccc2)o1` [Compound 1m] are 1.4 ± 0.3 µM, 3.7 ± 1.3 µM and 9 ± 2 µM.
Turning to `CC(C)Oc1cc(NC(=N)c2ccccn2)ccc1-c1ccc(-c2ccncc2)o1` [Compound 1f], the IC50 in data set [1] worked out at 2.6 ± 0.1 µM; in data set [2] (setting [5]), 2.7 ± 0.2 µM; in the data set on J774 macrophages (setting [6]) it was 22 µM.
Turning to `CC(C)Oc1cc(NC(=N)c2ccccn2)ccc1-c1ccc(-c2ccccc2)o1.CS(=O)(=O)O` [Compound 1b, N-(3-isopropoxy-4-(5-phenylfuran-2-yl)phenyl)picolinimidamide methanesulfonate], the IC50 in data set [1] was 0.31 ± 0.01 µM; in data set [2] (setting [5]), 0.13 ± 0.03 µM; in data set [4] it was 0.26 ± 0.05 µM; in the data set with J774 macrophages (setting [6]), 13 µM. For the same compound, the concentration at 24 h in data set [3] (liver and spleen, read-out: concentration in the liver and spleen at 24 h post dose) was 600 to 700 nM; in data set [3] (plasma, read-out: plasma concentration at 24 h post dose), 140 nM. The concentration at 1 h in data set [3] (liver, read-out: liver concentration C1h) is 12600 nM; in data set [3] (plasma, read-out: plasma concentration C1h), 1900 nM; in data set [3] (spleen, read-out: spleen concentration C1h), 4700 nM. Also, the “selectivity index” value in the data set with J774 macrophages is listed as no less than 25. In addition, the “suppression (inhibition)” value in the data set on L. donovani LV82 amounted to 37%. For the same compound, the “inhibition of liver parasitemia” value stood at 37% with L. donovani LV82 (p.o. 50 mg/kg once daily for 5 days) and 46% in the data set with L. donovani LV82 (p.o. 100 mg/kg/day for five days, vs control). The in vivo tolerability result in the data set on healthy BALB/c mice is given as “well tolerated”.
With `COc1ccc(-c2ccc(-c3ccc(NC(=N)c4ccccn4)cc3OC(C)C)o2)cc1` [Compound 1g], the IC50 in data set [1] turned out to be 0.9 ± 0.15 µM; in data set [2] (setting [5]) it was 0.82 ± 0.31 µM; in the data set with J774 macrophages (setting [6]), 6.7 ± 0.9 µM.
The matching figures for `CC(C)Oc1cc(NC(=N)c2ccccn2)ccc1-c1cnc(-c2ccccc2)o1` [Compound 3]: 1 µM, 0.59 ± 0.06 µM and 24 µM.
In the same order, the values of `COc1ccc(-n2cc(-c3ccc(NC(=N)c4ccccn4)cc3OC(C)C)nn2)cc1` [Compound 2] are 1.6 ± 0.2 µM, 2.9 ± 0.1 µM and 16 µM.
For `CC(C)Oc1cc(NC(=N)c2ccccn2)ccc1-c1ccc(-c2ccc(F)cc2)o1` [Compound 1h], the IC50 in data set [1] came to 1.1 ± 0.1 µM; in data set [2] (setting [5]), 0.92 ± 0.19 µM; in the data set on J774 macrophages (setting [6]) it was 8 ± 0.1 µM.
For `C[C@@H]1[C@H](O)[C@@H](C)/C=C/C=C/C=C/C=C/C=C/C=C/C=C/[C@H](O[C@@H]2O[C@H](C)[C@@H](O)[C@H](N)[C@@H]2O)C[C@@H]2O[C@](O)(C[C@@H](O)C[C@@H](O)[C@H](O)CC[C@@H](O)C[C@@H](O)CC(=O)O[C@H]1C)C[C@H](O)[C@H]2C(=O)O` [amphotericin B, reference compound], the results for the IC50 in data set [1] and in data set [2] (setting [5]) were 0.04 ± 0.003 µM and 0.12 ± 0.01 µM, respectively.
Regarding `CCOc1cc(NC(=N)c2ccccn2)ccc1-c1ccc(-c2ccccc2)o1` [Compound 1l], the results for the IC50 (in data set [1]; in data set [2] (setting [5]); in the data set with J774 macrophages (setting [6])) were 0.85 ± 0.17 µM, 0.98 ± 0.07 µM and 6.6 ± 0.6 µM, respectively.
Take `CC(C)Oc1cc(NC(=N)c2ccccn2)ccc1-c1ccc(-c2cccnc2)o1` [Compound 1e]: the figures for the IC50 (in data set [1]; in data set [2] (setting [5]); with J774 macrophages (setting [6])) were 1.2 ± 0.1 µM, 0.9 ± 0.23 µM and greater than 50 µM, respectively.
For `COc1cc([C@@H]2c3cc4c(cc3[C@H](O)[C@H]3COC(=O)[C@H]23)OCO4)cc(OC)c1OC` [podophyllotoxin, reference compound], the IC50 with J774 macrophages (J774, read-out: IC50 J774 macrophages) came out at 0.024 ± 0.005 µM.
As to `COc1ccccc1-c1ccc(-c2ccc(NC(=N)c3ccccn3)cc2OC(C)C)o1` [Compound 1i], the values for the IC50 (in data set [1]; in data set [2] (setting [5]); in the data set with J774 macrophages (setting [6])) were 1.3 ± 0.1 µM, 1.4 ± 0.2 µM and 5.3 ± 1 µM, respectively.
For the compound `CCCCCCCCCCCCCCCCOP(=O)([O-])OCC[N+](C)(C)C` [miltefosine, reference compound], the “inhibition of liver parasitemia” value was greater than 90% in the data set on L. donovani LV82 (i.p. 10 mg/kg/day for five days, 10 mg/kg/day); 99% with L. donovani LV82 (i.p. 10 mg/kg/day for five days, listed as Milt, 10 mg/kg/day); 98% with L. donovani LV82 (i.p. 10 mg/kg/day for five days, listed as Miltefosine, 10 mg/kg/day); greater than 90% with L. donovani LV82 (p.o. 10 mg/kg/day for five days, 10 mg/kg/day); 96% with L. donovani LV82 (p.o. 10 mg/kg/day for five days, listed as Milt, 10 mg/kg/day).
